Source: patent US20240246941A1, “SUBSTITUTED 4-(3-AMINOPROP-1-YL)AMINOQUINOLINE ANALOGS AS MODULATORS OF MELANOMA-ASSOCIATED ANTIGEN 11 UBIQUITIN LIGASE” (ST. JUDE CHILDREN'S RESEARCH HOSPITAL, INC., priority 2020, published 2024)
Where a SMILES comes first, the peptide text is derived from it. [ ]: non-standard residue; d: D form. Phe(4-CN) = N#Cc1ccc(C[C@H](N)C(=O)O)cc1; Phe(3-Me) = Cc1cccc(C[C@H](N)C(=O)O)c1

molecular target: interaction between GST-MAGEA11 MHD and FAM-PCF11_4 peptide (MAGE-A11:PCF11) (Homo sapiens (Human), UniProt P43364); experiment: TR-FRET dose response competition assay for disruption of MAGE-A11:PCF11 binding; settings: Dose response TR-FRET screening of nine scaffold groups against MAGE-A11:PCF11; read-out: consensus IC50
Sequence (P43364 218-429): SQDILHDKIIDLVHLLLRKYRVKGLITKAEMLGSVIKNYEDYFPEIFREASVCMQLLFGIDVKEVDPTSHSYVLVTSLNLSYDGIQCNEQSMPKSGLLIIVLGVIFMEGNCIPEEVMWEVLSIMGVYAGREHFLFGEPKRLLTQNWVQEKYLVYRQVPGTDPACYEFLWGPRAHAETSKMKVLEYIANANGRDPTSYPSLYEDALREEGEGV
Description: TR-FRET Assays and High-throughput Screen. Terbium-anti-GST antibody, 1 M Tris pH 7.5 1 M MgCl2 and 1 M DTT were purchased from Invitrogen (Carlsbad, CA), BSA was purchased from Sigma (St. Louis, MO). Dimethyl sulfoxide (DMSO) was purchased from Fisher Scientific (Pittsburgh, PA). Black 384-well low volume plates and 384-well polypropylene compound plates were purchased from Corning Incorporated (Tewksbury, MA). The St. Jude FDA drug and Bioactive library (11,293 chemicals), Drug-like library (10,073 chemicals) and Lead-like library (10,041 chemicals) were custom assembled and purchased from commercial sources including Sigma, Microsource (Gaylordsville, CT), selleckchem (Houston, TX), ChemDiv (San Diego, CA), ChemBridge (San Diego, CA), Enamine (Monmouth Jct., NJ), and Life Chemicals (Niagara-on-the-Lake, ON, Canada). They were arrayed (10 mM in DMSO) in 384-well polypropylene compound plates with columns 1, 2, 13 and 14 empty which were reserved for controls.
The TR-FRET assay buffer with a formula of 50 mM Tris pH 7.5, 20 mM MgCl2, 0.1 mg/ml BSA and 1 mM DTT was freshly prepared before each experiment. All TR-FRET assays were performed in black 384-well plates with 20 μl/well assay volume in the TR-FRET assay buffer at room temperature (approximately 25° C.). All peptides or compounds were solubilized in DMSO. To test the competitive activity of peptides or compounds against the interaction between GST-MAGEA11 MHD and FAM-PCF11_4 peptide, 10 μl/well peptide or compound at specified concentration was dispensed into a black 384-well low volume plate, followed by 5 μl/well FAM-PCF11_4 (800 nM), 5 μl/well Tb-anti-GST (20 nM) and GST-MAGEA11 MHD (20 nM). The assay components in each well was then mixed by shaking the plate on an IKA MTS 2/4 digital microtiter plate shaker (IKA Works; Wilmington, NC, USA) at 900 RPM for 1 minute. The plate was further centrifuged in an Eppendorf 5810 centrifuge with an A-4-62 swing-bucket rotor (Eppendorf AG, Hamburg, Germany) at 201 g (1000 rpm) for 30 seconds. The plate was then incubated for 90 min with a lid to avoid light exposure to the assay components. After incubation, the fluorescent emission signals at 520 nm and 490 nm channels of individual wells were measured with a PHERAstar FS plate reader (BMG Labtech; Durham, NC, USA) by using a 340 nm excitation filter, 100 μs delay time, and 200 μs integration time. The TR-FRET fluorescence emission ratio (TR-FRET signal) for each well was presented as 10 000×520 nm/490 nm, which was used directly for curve fitting, or further converted to % Inhibition based on the respective positive and negative controls. The graphic software GraphPad Prism 4.81 (GraphPad Software; La Jolla, CA, USA) was used to generate curves and derive IC50 values of tested peptides or compounds, if applicable.
TR-FRET inhibitory activity characterization of a panel of PCF11 peptides against the interaction between GST-MAGEA11 MHD and FAM-PCF11_4 was performed as follows. In a 20 μl/well assay volume, dilutions of PCF11_1 to PCF11_8 peptides (concentrations ranged from 3.1 nM to 100 μM for peptides PCF11_4, PCF11_5, PCF11_6 and PCF11_8 in a 1-to-2 dilution pattern for 16 concentration levels, and ranged from 48.9 nM to 100 μM for peptides of PCF11_1, PCF11_2, PCF11_3 and PCF11_7 in a 1-to-2 dilution pattern for 12 concentration levels), 200 nM FAM-PCF11_4, 5 nM Tb-anti-GST and 5 nM GST-MAGEA11 were mixed together and incubated for 90 min before the TR-FRET signal for each well was measured. The final DMSO concentration was 1.1% (v/v). […] The signal of each peptide-treated well (Signalpeptide) was normalized to the positive and negative controls to derive % inhibition of the peptide at a specific concentration with equation 1. Where applicable, the % Inhibition data were fit into a Sigmoidal dose response equation to derive IC50 values.
TR-FRET screen for identifying MAGEA11 small molecule inhibitors was performed as follows.

SMILES | IC50 [µM]
COc1ccc(F)cc1CNCCCNc1ccnc2cc(Cl)ccc12 [SJ000000500-3] | 69.9
N#Cc1nc(-c2ccc(Cl)cc2)oc1N1CCOCC1 [SJ000010022-1] | 69.9
N#Cc1nc(-c2ccc(F)cc2)oc1N1CCOCC1 [SJ000011204-1] | 69.9
CCCN1C(=O)c2ccccc2NC1c1ccc(O)c(OCC)c1 (stereo not shown) [SJ000019510-1] | 69.9
Cc1ccc(C2Nc3ccccc3C(=O)N2Cc2ccccc2)cc1 (stereo not shown) [SJ000019545-2] | 69.9
O=C1c2ccccc2NC(c2ccc(Br)cc2)N1Cc1ccccc1 (stereo not shown) [SJ000019546-2] | 69.9
O=C1c2ccccc2NC(c2ccc(Cl)cc2)N1Cc1ccccc1 (stereo not shown) [SJ000019547-2] | 69.9
Cc1ccc(S(=O)(=O)N2CCN(C3=C(Cl)C(=O)c4ccccc4C3=O)CC2)cc1 [SJ000021282-1] | 10.4
O=C(O)c1cccc(NC2=C(Cl)C(=O)c3ccccc3C2=O)c1 [SJ000022282-2] | 69.9
O=C1C(Cl)=C(Nc2ccc(Br)cc2)C(=O)c2ccccc21 [SJ000024921-1] | 69.9
CC(=O)Nc1ccc(NC2=C(Cl)C(=O)c3ccccc3C2=O)cc1 [SJ000024922-1] | 69.9
CCCCOC(=O)c1ccc(NC2=C(Cl)C(=O)c3ccccc3C2=O)cc1 [SJ000024923-1] | 69.9
O=C1C(Cl)=C(Nc2cccc(C(F)(F)F)c2)C(=O)c2ccccc21 [SJ000024924-2] | 69.9
Cc1cccc(NC2=C(Cl)C(=O)c3ccccc3C2=O)c1 [SJ000024925-1] | 69.9
COC(=O)c1cccc(NC2=C(Cl)C(=O)c3ccccc3C2=O)c1 [SJ000024926-1] | 69.9
O=C1C(Cl)=C(NC(=O)C(F)(F)F)C(=O)c2ccccc21 [SJ000024928-1] | 9.87
CC(=O)N(C1=C(Cl)C(=O)c2ccccc2C1=O)c1cccc(I)c1 [SJ000024931-1] | 69.9
Cc1cccc(NC2=C(N)C(=O)c3ccccc3C2=O)c1 [SJ000024934-1] | 69.9

SMILES | IC50 [µM]
CC(=O)N(C1=C(Cl)C(=O)c2ccccc2C1=O)c1ccc(C(=O)O)cc1 [SJ000024935-1] | 69.9
CC(=O)N(C1=C(Cl)C(=O)c2ccccc2C1=O)c1ccc(F)cc1 [SJ000024947-1] | 69.9
CCCN1C(=O)c2ccccc2NC1c1ccc(F)cc1 (stereo not shown) [SJ000026516-2] | 69.9
CCCN1C(=O)c2ccccc2NC1c1ccc(OC)c(OC)c1 (stereo not shown) [SJ000026517-1] | 69.9
CCCN1C(=O)c2ccccc2NC1c1ccc(OC)cc1 (stereo not shown) [SJ000026518-2] | 69.9
O=C1c2ccccc2NC(c2ccc(F)cc2)N1Cc1ccccc1 (stereo not shown) [SJ000026596-1] | 69.9
Cc1ccc(S(=O)(=O)c2nc(-c3cccc(C)c3)oc2N2CCOCC2)cc1 [SJ000027480-1] | 11.2
O=S(=O)(c1ccc(Cl)cc1)c1nc(-c2cccc(Br)c2)oc1N1CCOCC1 [SJ000027481-1] | 9.2
Cc1ccc(S(=O)(=O)c2nc(-c3cccc([N+](=O)[O-])c3)oc2N2CCOCC2)cc1 [SJ000027482-1] | 9.54
C=C1C(Cl)=C(N2CCN(S(=O)(=O)c3ccc(Cl)cc3)CC2)C(=O)c2ccccc21 [SJ000029651-1] | 69.9
CCOc1ccc(N(C(C)=O)C2=C(Cl)C(=O)c3ccccc3C2=O)cc1 [SJ000030567-2] | 69.9
O=C(CNC(=O)c1ccc2[nH]c3ccccc3c2c1)NCCO [SJ000031064-1] | 69.9
O=C(NCCO)c1ccc2[nH]c3ccccc3c2c1 [SJ000031065-1] | 69.9
CCOC(=O)c1ccc(NC2=C(N)C(=O)c3ccccc3C2=O)cc1 [SJ000032711-1] | 69.9
NC1=C(Nc2ccc(I)cc2)C(=O)c2ccccc2C1=O [SJ000032712-1] | 69.9
NC1=C(Nc2ccc(Br)cc2)C(=O)c2ccccc2C1=O [SJ000032713-1] | 69.9
CCCCOc1ccc(N(C(C)=O)C2=C(Cl)C(=O)c3ccccc3C2=O)cc1 [SJ000032717-1] | 8.71
CCCCCOc1ccc(NC2=C(N)C(=O)c3ccccc3C2=O)cc1 [SJ000032723-1] | 69.9

same assay, conditions: PCF11 peptides; read-out: IC50 of PCF11 peptides binding to GST-MAGE-A11 by TR-FRET

SMILES | IC50 [µM]
CC[C@H](C)[C@H](NC(=O)[C@H](CCC(N)=O)NC(=O)[C@H](Cc1c[nH]cn1)NC(=O)[C@@H](NC(=O)[C@@H](NC(=O)[C@@H](NC(=O)[C@H](CC(C)C)NC(=O)[C@@H](N)Cc1ccccc1)C(C)C)C(C)C)C(C)C)C(=O)N[C@@H](CCCNC(=N)N)C(=O)N[C@@H](CCC(N)=O)C(=O)N[C@@H](CC(C)C)C(=O)N[C@@H](Cc1cccc(C)c1)C(=O)N[C@@H](CCC(N)=O)C(=O)O [3-methyl-phenylanaline] (H-FLVVVHQIRQL[Phe(3-Me)]Q-OH; N-terminus and C-terminus assumed) | 0.0017
CC[C@H](C)[C@H](NC(=O)[C@H](CCC(N)=O)NC(=O)[C@H](Cc1c[nH]cn1)NC(=O)[C@@H](NC(=O)[C@@H](NC(=O)[C@@H](NC(=O)[C@H](CC(C)C)NC(=O)[C@@H](N)Cc1ccccc1)C(C)C)C(C)C)C(C)C)C(=O)N[C@@H](CCCNC(=N)N)C(=O)N[C@@H](CCC(N)=O)C(=O)N[C@@H](CC(C)C)C(=O)N[C@@H](Cc1ccc(C#N)cc1)C(=O)N[C@@H](CCC(N)=O)C(=O)O [4-cyano-phenylalaninnne] (H-FLVVVHQIRQL[Phe(4-CN)]Q-OH; N-terminus and C-terminus assumed) | 0.663

same assay, conditions: Table 8, representative compounds; read-out: TR-FRET IC50

SMILES | IC50 [µM]
COc1ccc(F)cc1CNCCCNc1ccnc2cc(Cl)ccc12 [SJ000000500] | 69.9

molecular target: MAGE-A11:PCF11 (Homo sapiens (Human), UniProt P43364); experiment: TR-FRET single point screening at 15 μM; assay type: binding; set-up: unit not given here; settings: single point TR-FRET screening at 15 μM against MAGE-A11:PCF11
Sequence (P43364 218-429): as above
How it was run: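 Competition TR-FRET: compounds at final 15 μM mixed with 200 nM FAM-PCF11_4, 5 nM GST-MAGEA11 and 5 nM Tb-anti-GST in Tris pH 7.5/MgCl2/BSA/DTT buffer, room temperature, 90 min. Emission ratio 520/490 nm (340 nm excitation) expressed as % inhibition relative to positive and negative controls.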

SMILES | TR-FRET signal
O=C(C[C@H]1CC[C@]2(CC1)OO[C@]1(O2)C2CC3CC(C2)CC1C3)NCCCCNc1ccnc2cc(Cl)ccc12 [SJ000578384] | 25.12
Cc1cc(NC(=O)CN[C@H]2CCN(Cc3ccccc3)C2)c2ccccc2n1 [SJ000832405] | 4.364
Cc1cc(NC(=O)CN[C@H]2CCN(Cc3cccc(F)c3)C2)c2ccccc2n1 [SJ000832581] | −1.278

same assay, conditions: single point TR-FRET screening of quinoline compounds against MAGE-A11:PCF11; 15 μM

SMILES | TR-FRET signal
CCCN(CCCNc1ccnc2cc(C(F)(F)F)ccc12)Cc1cnn(C)c1 [SJ000575182] | 15.68
CCCN(CCCNc1ccnc2cc(C(F)(F)F)ccc12)Cc1nccs1 [SJ000575189] | 8.665
CCCN(CCCNc1ccnc2cc(C(F)(F)F)ccc12)CC1CCOC1 (stereo not shown) [SJ000575190] | 1.787
CCCN(CCCCCC(=O)OC)CCCNc1ccnc2cc(C(F)(F)F)ccc12 [SJ000575191] | 5.6
Clc1ccc2c(NCCCNCc3ccc[nH]3)ccnc2c1 [SJ000575192] | 52.99
Clc1ccc2c(NCCCNCc3ccc(Br)s3)ccnc2c1 [SJ000575193] | 15.34
O=C(C[C@H]1CC[C@]2(CC1)OO[C@]1(O2)C2CC3CC(C2)CC1C3)NCCCNc1ccnc2cc(Cl)ccc12 [SJ000578380] | 28.48
